This experiment addresses T1, CBP (Homo sapiens, UniProt Q92793).
T1 construct: endogenous in cells; host or cells: SW480 nuclear extract
In words: COMPOUND 2 streptavidin-agarose affinity pull-down from SW480 nuclear extracts. Format: binding. The conditions noted are these: SW480 nuclear extracts, 20 μM preincubation. The protocol:
FIG. 1. COMPOUND 1 inhibits β-catenin/TCF transcription. • A(i) and A(ii). Structures of COMPOUND 1, COMPOUND 2, COMPOUND 3, COMPOUND 4, and COMPOUND 5. • B(i) and B(ii). […] SW480 cells (10^5), (FIG. 1B(i)), were transfected with β-catenin/TCF luciferase construct. Cells were treated with COMPOUND 1 (1-64 μM). 24 hours post treatment lysates were prepared and subjected to dual luciferase assay. The data is represented in different form in FIG. 1B(ii). • C. COMPOUND 1 has no effect on NFAT reporter construct. Stably transfected Jurkat cells, right panel, with an NFAT reporter construct, were stimulated with PMA (10 ng/ml)/lonomycin (1 μg/ml), and treated with COMPOUND 1 (0.781-50 μM). 24 hours post treatment lysates were prepared and subjected to dual luciferase assay. All experiments were performed in duplicate and the values plotted as means +/−standard deviation. • D. CBP is the molecular target of COMPOUND 1. Nuclear extracts of SW480 cells were incubated with streptavidin-agarose beads coated with COMPOUND 2 (25 μM). Beads were washed 3 times and the eluted were subjected to gel electrophoresis and immunoblotting, with anti-CBP antibodies. […] The lysates were desalted using G-25 1 cc columns (Pharmacia) to remove the unbound ^14C-labeled-COMPOUND 1, and ^14C-labeled-COMPOUND 1 incorporation was measured. […]

The text below walks through data of patent US7531320B2, “Modulation of β-catenin/TCF-activated transcription” (priority 2003, dated 2009).

T1 sequence (Q92793 whole entry): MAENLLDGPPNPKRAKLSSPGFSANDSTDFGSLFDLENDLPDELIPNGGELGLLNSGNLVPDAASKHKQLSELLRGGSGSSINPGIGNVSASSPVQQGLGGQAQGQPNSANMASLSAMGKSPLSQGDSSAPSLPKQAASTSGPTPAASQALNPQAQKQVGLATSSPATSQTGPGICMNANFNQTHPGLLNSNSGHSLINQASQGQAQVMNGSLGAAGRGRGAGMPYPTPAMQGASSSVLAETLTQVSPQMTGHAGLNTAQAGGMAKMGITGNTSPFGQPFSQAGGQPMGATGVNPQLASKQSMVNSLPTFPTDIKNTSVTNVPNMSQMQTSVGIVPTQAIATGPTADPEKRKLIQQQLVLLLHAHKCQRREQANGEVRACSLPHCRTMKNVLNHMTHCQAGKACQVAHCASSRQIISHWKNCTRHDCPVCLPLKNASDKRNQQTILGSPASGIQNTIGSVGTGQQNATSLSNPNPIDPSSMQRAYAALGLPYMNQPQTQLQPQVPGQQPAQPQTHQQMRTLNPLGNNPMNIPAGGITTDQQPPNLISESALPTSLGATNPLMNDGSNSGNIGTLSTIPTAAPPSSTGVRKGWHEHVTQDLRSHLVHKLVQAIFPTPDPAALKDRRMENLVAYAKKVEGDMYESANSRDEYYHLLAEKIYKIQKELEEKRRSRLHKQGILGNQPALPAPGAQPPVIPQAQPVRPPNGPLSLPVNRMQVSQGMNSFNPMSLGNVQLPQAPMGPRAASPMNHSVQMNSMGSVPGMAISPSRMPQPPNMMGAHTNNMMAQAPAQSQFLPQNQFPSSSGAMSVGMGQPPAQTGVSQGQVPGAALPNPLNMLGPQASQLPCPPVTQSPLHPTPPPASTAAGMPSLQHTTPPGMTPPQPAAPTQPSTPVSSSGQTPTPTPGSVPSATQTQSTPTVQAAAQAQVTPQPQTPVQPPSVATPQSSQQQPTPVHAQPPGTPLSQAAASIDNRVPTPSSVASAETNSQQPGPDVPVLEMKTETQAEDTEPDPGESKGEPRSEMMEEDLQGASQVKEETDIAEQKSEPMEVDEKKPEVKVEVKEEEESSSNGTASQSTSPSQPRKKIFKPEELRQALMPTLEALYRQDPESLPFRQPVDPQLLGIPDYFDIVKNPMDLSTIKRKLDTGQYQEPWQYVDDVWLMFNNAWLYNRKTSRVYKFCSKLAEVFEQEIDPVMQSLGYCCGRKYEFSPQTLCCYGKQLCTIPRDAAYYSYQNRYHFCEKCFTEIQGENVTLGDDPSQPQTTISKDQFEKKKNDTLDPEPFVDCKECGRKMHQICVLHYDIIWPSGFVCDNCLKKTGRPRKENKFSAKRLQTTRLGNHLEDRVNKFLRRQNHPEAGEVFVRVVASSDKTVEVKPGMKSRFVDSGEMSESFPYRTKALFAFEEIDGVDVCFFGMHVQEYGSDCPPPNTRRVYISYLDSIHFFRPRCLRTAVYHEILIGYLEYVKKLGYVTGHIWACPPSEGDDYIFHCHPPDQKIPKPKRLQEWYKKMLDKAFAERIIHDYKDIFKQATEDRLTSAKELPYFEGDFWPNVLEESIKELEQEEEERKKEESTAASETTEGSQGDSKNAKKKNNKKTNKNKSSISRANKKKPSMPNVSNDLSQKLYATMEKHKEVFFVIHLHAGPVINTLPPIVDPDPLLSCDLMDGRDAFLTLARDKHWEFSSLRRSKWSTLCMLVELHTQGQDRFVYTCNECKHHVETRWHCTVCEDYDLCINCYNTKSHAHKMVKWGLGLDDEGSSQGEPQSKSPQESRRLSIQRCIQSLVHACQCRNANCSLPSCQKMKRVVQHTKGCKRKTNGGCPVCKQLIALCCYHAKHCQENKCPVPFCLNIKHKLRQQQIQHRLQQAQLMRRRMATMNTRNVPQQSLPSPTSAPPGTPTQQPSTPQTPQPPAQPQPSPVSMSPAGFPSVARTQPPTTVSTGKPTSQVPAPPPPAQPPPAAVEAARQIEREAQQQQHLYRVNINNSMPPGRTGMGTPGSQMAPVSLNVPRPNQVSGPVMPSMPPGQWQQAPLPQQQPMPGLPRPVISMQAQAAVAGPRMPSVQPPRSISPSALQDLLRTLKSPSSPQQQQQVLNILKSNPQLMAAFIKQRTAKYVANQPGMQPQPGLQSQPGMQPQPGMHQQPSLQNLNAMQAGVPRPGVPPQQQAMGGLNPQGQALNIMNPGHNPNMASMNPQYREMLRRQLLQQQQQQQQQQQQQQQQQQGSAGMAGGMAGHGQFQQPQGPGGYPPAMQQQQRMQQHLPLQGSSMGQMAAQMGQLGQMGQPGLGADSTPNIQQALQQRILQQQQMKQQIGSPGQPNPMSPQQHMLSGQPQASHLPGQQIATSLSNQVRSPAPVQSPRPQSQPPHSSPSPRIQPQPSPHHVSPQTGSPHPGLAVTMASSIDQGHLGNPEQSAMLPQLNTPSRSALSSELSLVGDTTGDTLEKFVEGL

As to `O=C1C(Cc2ccc(O)cc2)N2C(=O)CCN(C(=O)NCc3ccccc3)C2CN1Cc1cccc2ccccc12` (stereo not shown) [COMPOUND 1], the “Effect of preincubation with COMPOUND 1 on CBP binding to COMPOUND 2” value is given as “blocked the binding of CBP”.
